Source: patent US8455497B2, “Inhibitors of aspartyl protease” (Vertex Pharmaceuticals Incorporated, priority 1999, dated 2013)
Where two headings read alike, the source gives them in different places.

Key:
HIV-1 (strain IIIB) = test: Antiviral activity assay in MT4 cells (propidium iodide based); type: cell-based; conditions: Human immunodeficiency virus 1, IIIB; wild type HIV-1 virus, MT4 cells; read-out: Wildtype virus - IC50
How it was run: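 Compound serial dilutions in RPMI/FCS received MT4 cells pre-infected 1 hr at 37°C with HIV-1 IIIB at 100×TCID50. After 5 days' culture and Nonidet-40 lysis, well DNA content was measured by propidium iodide dye; mock-infected cells served as control.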

[1] = tested on: D545701-14 multi protease inhibitor resistant virus; test: Anti-viral activity against resistant virus D545701-14 in MT4 cells; type: cell-based, HIV-1
[2] = tested on: EP13 multi protease inhibitor resistant virus; test: Anti-viral activity against resistant virus EP13 in MT4 cells; type: cell-based, HIV-1
How it was run: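 MT4 cells infected for 1 h at 37 °C, MOI 100×TCID50, then diluted 6-fold onto pre-diluted compound and cultured 5 days (5% CO2). Viable-cell DNA content estimated by propidium iodide. EP13 carries protease mutations M46I, L63P, A71V, V82F/L, I84V, no RT mutations.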

[3] = Human immunodeficiency virus 1, MT4, read-out: D545701-14 mutant - IC50, D545701-14 multi protease inhibitor resistant virus, MT4 cells
[4] = Human immunodeficiency virus 1, MT4, read-out: EP13 mutant IC50, EP13 multi protease inhibitor resistant virus, MT4 cells
[5] = Human immunodeficiency virus 1, MT4, read-out: D545701-14 mutant - IC50
[6] = Human immunodeficiency virus 1, MT4, read-out: EP13 mutant IC50

Compound	IC50 (HIV-1 (strain IIIB))	IC50 [1, 3]	IC50 [2, 4]	IC50 [1, 5]	IC50 [2, 6]
COC(=O)CCCOc1ccc(C[C@H](NC(=O)OC2CO[C@H]3OCCC23)[C@H](O)CN(CC(C)C)S(=O)(=O)c2ccc3c(c2)OCO3)cc1 (stereo partly drawn) [Compound 303, Methyl 4-(4-{(2S,3R)-2-({[3R,3aS,6aR)-hexahydrofuro[2,3-b]furan-3-yloxy]carbonyl}amino)-4-[(1,3-benzodioxol-5-ylsulfonyl)(isobutyl)amino]-3-hydroxybutyl}phenoxy) butanoate]	10 to 100 nM	10 to 100 nM	10 to 100 nM	–	–
CC(C)CN(C[C@@H](O)[C@H](Cc1ccc(OCC(F)(F)F)cc1)NC(=O)O[C@H]1CO[C@H]2OCC[C@H]21)S(=O)(=O)c1ccc2c(c1)OCO2 [Compound 304, (3R,3aS,6aR)-hexahydrofuro[2,3-b]furan-3-yl (1S,2R)-3-[(1,3-benzodioxol-5-ylsulfonyl)(isobutyl)amino]-2-hydroxy-1-[4-(2,2,2-trifluoroethoxy)benzyl]propylcarbamate]	1 to 10 nM	1 to 10 nM	1 to 10 nM	–	–
CC(C)(CCCC#N)CN(C[C@@H](O)[C@H](Cc1ccc(OCc2ccccc2)cc1)NC(=O)O[C@H]1CO[C@H]2OCC[C@H]21)S(=O)(=O)c1ccc2c(c1)OCO2 [Compound 305, (3R,3aS,6aR)-Hexahydrofuro[2,3-b]furan-3-yl (1S,2R)-3-[(1,3-benzodioxol-5-ylsulfonyl)(5-cyano-2,2-dimethylpentyl)amino]-1-[4-(benzyloxy)benzyl]-2-hydroxypropylcarbamate]	1 to 10 nM	1 to 10 nM	1 to 10 nM	–	–
CC(C)CN(C[C@@H](O)[C@@H](N)Cc1ccc(OCc2ccccc2)cc1)S(=O)(=O)c1ccc2c(c1)OCO2 [Compound 308, N-{(2R,3S)-3-Amino-4-[4-(benzyloxy)phenyl]-2-hydroxybutyl}-N-isobutyl-1,3-benzodioxole-5-sulfonamide]	10 to 100 nM	1 to 10 nM	1 to 10 nM	–	–
CNC(=O)Oc1ccc(C[C@H](NC(=O)O[C@H]2CO[C@H]3OCC[C@H]32)[C@H](O)CN(CC(C)C)S(=O)(=O)c2ccc3c(c2)OCO3)cc1 [Compound 309, (3R,3aS,6aR)-Hexahydrofuro[2,3-b]furan-3-yl (1S,2R)-3-[(1,3-benzodioxol-5-ylsulfonyl)(isobutyl)amino]-2-hydroxy-1-(4-{[(methylamino)carbonyl]oxy}benzyl)propylcarbamate]	1 to 10 nM	–	–	1 to 10 nM	1 to 10 nM
CC(C)CN(C[C@@H](O)[C@H](Cc1ccc(OC(=O)NC(C)C)cc1)NC(=O)O[C@H]1CO[C@H]2OCC[C@H]21)S(=O)(=O)c1ccc2c(c1)OCO2 [Compound 310, (3R,3aS,6aR)-Hexahydrofuro[2,3-b]furan-3-yl (1S,2R)-3-[(1,3-benzodioxol-5-ylsulfonyl)(isobutyl)amino]-2-hydroxy-1-(4-{[(isopropylamino)carbonyl]oxy}benzyl)propylcarbamate]	1 to 10 nM	10 to 100 nM	1 to 10 nM	–	–
CC(C)CN(C[C@@H](O)[C@H](Cc1ccc(OC(=O)N(C)C)cc1)NC(=O)O[C@H]1CO[C@H]2OCC[C@H]21)S(=O)(=O)c1ccc2c(c1)OCO2 [Compound 311, (3R,3aS,6aR)-Hexahydrofuro[2,3-b]furan-3-yl (1S,2R)-3[(1,3-benzodioxol-5-ylsulfonyl)(isobutyl)amino]-1-(4-{[(dimethylamino)carbonyl]oxy}benzyl)-2-hydroxypropylcarbamate]	1 to 10 nM	–	–	10 to 100 nM	1 to 10 nM
CC(C)CN(C[C@@H](O)[C@H](Cc1ccc(OC(N)=O)cc1)NC(=O)O[C@H]1CO[C@H]2OCC[C@H]21)S(=O)(=O)c1ccc2c(c1)OCO2 [Compound 312, (3R,3aS,6aR)-Hexahydrofuro[2,3-b]furan-3-yl (1S,2R)-1-{4-[(aminocarbonyl)oxy]benzyl}-3-[(1,3-benzodioxol-5-ylsulfonyl)(isobutyl)amino]-2-hydroxypropylcarbamate]	10 to 100 nM	10 to 100 nM	1 to 10 nM	–	–
